According to publication PMC4879785, “GintAMT3 – a Low-Affinity Ammonium Transporter of the Arbuscular Mycorrhizal Rhizophagus irregularis” (Frontiers in Plant Science, 2016):

B1: GintAMT3 (Rhizophagus irregularis) (protein)
chain: MSETSQPSQFKEGDIAWMLTSTAFVWLMIPGVGYFYSGMARSKNALSLILFCFLCVPVVAMQWFIWGYSLSFSRTGGLFIGNLRNAFFMNVRGEPTLKAESLPEIVHAIYQGMFAAITPSLAIGAAAERARMLPLLVFIFVWSTLVYDVIACWIWSANGWFKTIEGLDFAGGTPVHIASGAAALAYCVVLGKRHGHGRDEFKPHNNVNVILGTVFLWFGWFGFNGGSAFGANTRAAMAIMVTNTAASFGGLAWMLMDYRLERKFSALGFCSGAVAGLVCITPASGYVSPPVSVLFGITGGIACNLAVKLKHILDFDDALDVFAVHAVGGVAGNTLLGIFADKEMAALNGEIIHGGAIDGHSVQLGYQIASSIAGLTYSFCISALILYVMDRIPCLKLRMEPDEEEIGTDETELGEPAYYFLDRVVASIQVQIASKTMSSPQQTQLQSIDHIHYS

What was measured:
GintAMT2 = biological target: T1, GintAMT2 (Rhizophagus intraradices, UniProt F8K9Q4); details: starting ammonium printed as 1 mM and 2 mM (Figure 5 legend)
T1 construct: gene amt2

GintAMT1 = biological target: T2, GintAMT1 (Rhizophagus intraradices, UniProt A2Q6J0); details: starting ammonium printed as 1 mM and 2 mM (Figure 5 legend)
T2 construct: gene AMT1

[1] = substrate: CN; assay: cells, lysate or membranes; assay type: cell-based, Rhizophagus irregularis; details: pH 5, 50 mM KH2PO4, 20 mM glucose, 30 °C, labelled compound, 0-15 mM substrate, Hanes-Woolf plot

T1 sequence (F8K9Q4 1-470): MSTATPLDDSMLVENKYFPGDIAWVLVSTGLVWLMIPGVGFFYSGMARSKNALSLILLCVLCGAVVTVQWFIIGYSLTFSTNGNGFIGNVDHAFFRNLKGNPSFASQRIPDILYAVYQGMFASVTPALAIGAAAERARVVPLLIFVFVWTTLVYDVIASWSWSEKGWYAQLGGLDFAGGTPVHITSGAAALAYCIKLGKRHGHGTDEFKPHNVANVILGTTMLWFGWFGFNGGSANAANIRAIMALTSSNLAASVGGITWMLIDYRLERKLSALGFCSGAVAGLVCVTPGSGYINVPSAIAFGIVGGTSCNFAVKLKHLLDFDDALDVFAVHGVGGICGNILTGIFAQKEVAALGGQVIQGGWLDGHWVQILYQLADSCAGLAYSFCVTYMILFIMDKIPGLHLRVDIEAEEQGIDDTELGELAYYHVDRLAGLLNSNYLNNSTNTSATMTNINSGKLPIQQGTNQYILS
T2 sequence (A2Q6J0 1-479): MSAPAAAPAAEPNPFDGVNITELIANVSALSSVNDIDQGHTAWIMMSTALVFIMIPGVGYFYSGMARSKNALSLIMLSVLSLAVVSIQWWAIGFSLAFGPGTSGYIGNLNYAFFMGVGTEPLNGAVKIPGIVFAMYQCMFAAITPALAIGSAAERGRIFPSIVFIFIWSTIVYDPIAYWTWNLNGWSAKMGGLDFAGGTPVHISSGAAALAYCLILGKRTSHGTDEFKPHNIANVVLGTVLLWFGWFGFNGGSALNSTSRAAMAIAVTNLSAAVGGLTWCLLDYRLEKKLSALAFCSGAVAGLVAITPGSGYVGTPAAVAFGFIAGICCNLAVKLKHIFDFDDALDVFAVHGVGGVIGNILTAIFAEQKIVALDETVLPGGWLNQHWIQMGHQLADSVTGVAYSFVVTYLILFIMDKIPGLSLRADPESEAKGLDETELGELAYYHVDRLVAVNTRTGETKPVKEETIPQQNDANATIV

Row | Molecule | ammonium removal from medium by yeast (GintAMT2) | ammonium removal from medium by yeast (GintAMT1) | Km [1]
1 | N [ammonium] | GintAMT2 and GintAMT3 expressing cells imported ammonium at a slower rate | Yeast cells expressing ScMEP1 and GintAMT1 took up ammonium quite rapidly. | –
2 | B1 | – | – | 1800 µM
